# From article PMC6611794, “Development of a high-throughput strategy for discovery of potent analogues of antibiotic lysocin E” (Nature Communications, 2019)
# Where two headings read alike, the source gives them in different places. Where a SMILES comes first, the peptide text is derived from it. Bridges are numbered along the chain shown (N, C = ends). [ ]: non-standard residue; d: D form. The star is where a group is joined. Hexanoyl(3R-OH,5-Me) = CC(C)C[C@@H](O)CC(=O)*; dNMeF = CN[C@H](Cc1ccccc1)C(=O)O
# Key:
# [1] = test system: Staphylococcus aureus RN4220
# Description: ×105 colony forming units (CFU) , 21 g/L Müller Hinton Broth (Difco), 5 0 mg/L Ca2+ (adjusted with CaCl2• 2H2O), and 25 mg/L Mg 2+ (adjusted with MgCl 2•6H2O)]. […]
# Evaluation of antimicrobial spectra of peptides. The MIC assay was performed according to the Clinical and Laboratory Standards Institute protocols. The antimicrobial activities of the peptides were measured using the broth microdilution method.1 Serial dilutions of peptides were prepared in cation adjusted Müller Hinton Broth. Each dilution (100 µL) was dispensed to each well of the round-bottom plate to obtain final concentrations ranging from 64 µg/m L to 0.0075 µg/m L. Bacteria were grown at 37 °C overnight on Tryptic Soy Broth or Müller Hinton Broth agar plates. Bacterial inoculum was prepared by direct suspension of the colonies in 0.9% saline, and adjusted to obtain OD 625 0.08–0.13 using a spectrophotometer UV -1280 (Shimadzu). The resultant suspension was diluted with cation adjusted Müller Hinton Broth (1/20). The resultant mixture (10 µL) was inoculated to each well of the plates (approximately 5 ×10^4 CFU/well ), mixed, and incubated at 37 °C for 18 h. The MIC value was determined as the minimum concentration that inhibited growth of bacteria. To evaluate the antimicrobial activities of peptides in the presence of serum, 10% bovine calf serum in cation adjusted Müller Hinton Broth was used.
# [2] = test system: S. aureus; assay type: cell-based, Staphylococcus aureus; conditions: 18 h
# Description: Antimicrobial activity assay of bead-derived peptides. […]
# plate was added DMSO (1 µL/well). […]
# precipitation of the grown cells was examined.
# Evaluation of antimicrobial spectra of peptides. The MIC assay was performed according to the Clinical and Laboratory Standards Institute protocols. The antimicrobial activities of the peptides were measured […]
# Soy Broth or Müller Hinton Broth agar plates. Bacterial inoculum was prepared by direct suspension of the […]
# and incubated at 37 °C for 18 h. […]
# inhibited growth of bacteria.
structure (smiles),measurement,setting,value
"CC[C@H](C)[C@@H]1NC(=O)[C@@H](Cc2c[nH]c3ccccc23)NC(=O)[C@@H](CCC(N)=O)NC(=O)[C@H](CCC(=O)O)NC(=O)[C@@H](CCCNC(=N)N)NC(=O)[C@H](CC(C)C)NC(=O)[C@@H](Cc2ccccc2)N(C)C(=O)CNC(=O)[C@H](CO)NC(=O)[C@@H](CCCNC(=N)N)NC(=O)[C@@H](NC(=O)C[C@H](O)CC(C)C)[C@@H](C)OC(=O)[C@H]([C@@H](C)O)NC1=O [Peptide 1, Lysocin E] ({Hexanoyl(3R-OH,5-Me)}-T[dR]SG[dNMeF]L[dR]E[dQ][dW]IT; ester 1-C)",MIC,[1]; 10% BCS (+),0.125 mg/L
same,MIC,[1]; BCS free,4.0 mg/L
same,original MIC value against S. aureus,[2],2 to 4 mg/L
